Laboratory results taken from patent US9127024B2 (Intrexon Corporation, priority 2013, dated 2015).
Read-outs that look alike come from different tables or passages of the source.

What was measured:
[1] = molecular target: RheoSwitch® (CHO-K1_RS-1 cells, firefly Luciferase reporter) (Choristoneura fumiferana, UniProt O77240); assay: in vitro gene switch assay (fLUC Luciferase expression, potency screen); type: cell-based
Text: Gene switch assays are disclosed, e.g., in U.S. Pat. Nos. 8,076,517; 7,456,315; 7,304,161; and 6,258,603.
CHO-K1 cells were stably transfected with a plasmid (RS-1, FIG. 1) coding for firefly Luciferase (fLUC) under the control of the RheoSwitch® resulting in the stable cell line CHO-K1_RS-1. A master cell bank was created containing approximately 100 vials at 5×10^6 cells per vial. One vial of CHO-K1_RS-1 was thawed and cultured for two weeks prior to each in vitro potency screening.
Twenty-four (24) hours prior to treatment with the control and test compounds the CHO-K1_RS-1 cells were seeded into white-opaque 384-well cell culture plates at 3,600 cells per well in 30 μl of culture medium. The cells were incubated in a humidified CO2 incubator at 37° C. until compound treatment.
Compounds were prepared at 25 mM in 100% dry DMSO and stored at room temperature in sealed 1 ml tubes prior to subsequent dilution and assay. On the day of cell treatment the tubes containing the control and test compounds were sorted and the ligands transferred to a 96-well polypropylene plate for subsequent dilution. The compounds were diluted in 100% dry DMSO in an 8-point, 10-fold dilution series ranging from 25 mM to 2.5 nM using the Biomek FX automated liquid handler.
The diluted compounds were then transferred to each well of 384-well polypropylene plate in quadruplicate resulting in a single 384-well plate with four replicates of each compound dilution in a different quadrant of the plate. Each well on the 384-well plate received 20 μl of diluted compound. The 384-well plates containing diluted compound and the plates containing cells in culture were loaded onto the Biomek FX and 30 nl of compound was delivered to each well containing cells using a 384-pin V&P Scientific Pin Tool. The resulting 1000-fold dilution (30 nl to 30 μl) generated a final dosing range of 25 μM to 2.5 pM in 0.1% DMSO. Two replicate plates were produced to supply a dedicated plate for the Luciferase expression assay and the APH cell viability assay.
The cells were incubated with the compound for 24 hours in a humidified CO2 incubator at 37° C. Following incubation, the cells were assayed for Luciferase expression (fLUC assay) using the Steady Glo assay from Promega. Cells were equilibrated to room temperature for 15 minutes prior to reagent addition. Thirty micro liters (30 μl) of assay reagent was added to each well of the 384-well plate using the Biomek FX. The reagent was incubated with the cells for 10-120 minutes prior to reading on a Molecular Devices Spectramax L luminometer. The assay reagents were prepared as per the manufacturer's instructions.
The Luciferase expression data was normalized to the baseline signal from cells treated with DMSO alone. The ratio of signal from treated cells to vehicle-treated cells was plotted and non-linear regress was performed using Graph Pad Prism software. EC50, (log)EC50 and Hill slope data was generated. Reporter gene expression, e.g., luciferase expression, serves as a proxy for the expression of a gene of interest. See, e.g., US 2009/0123441 and WO 2011/119773.

[2] = Pharmacokinetic (PK) study, oral gavage, plasma LC-MS/MS; settings: for Clearance: oral clearance
Procedure: Female Sprague Dawley rats were fasted for at least 8 hours (overnight) prior to oral dosing of the compound via gavage (10 mg/kg; vehicle=2 mg/mL of Capryol 90/Triacetin (1:1, v/v); 3 animals/compound) and weighed prior to dosing. The correct volume of the appropriate formulation was administered based on that day's (animal) body weight. Body weight, dose volume, and dosing time was recorded for each animal. Animals were not fed for at least 4 hours following activator ligand administration.
Approximately 200 μL/blood sample was collected from the catheter sample points in EDTA tubes at each time point from each animal. The exact time of blood collection was recorded for each animal Blood samples were held at 4° C. (wet ice) starting immediately after collection and were centrifuged within 15 minutes from the collection for 12 minutes at 2500 rpm. After centrifugation, plasma samples were stored at ^−80° C. until assay. Sample times were as follows: Day 0: 0, 0.5, 1, 2, 3, 4, 6 and 8 hours; Day 1: 24 hours.
LC-MS/MS Method: Liquid chromatography tandem mass spectrometry with protein precipitation method was used to quantify the compound in rat plasma samples collected from all animals dosed with the ligand. Linearity range was from 1 ng/mL to 1000 ng/mL, with correlation coefficient for calibration curves above 0.99 and analyte quantified within ±15% of target at all calibrator concentrations.
The plasma ligand concentration was calculated by extrapolating the area under the curve values for the samples from the standard curve generated by the Analyst® software program. The ng/mL values for the plasma samples representing all the animals were used to generate the pharmacokinetic (PK) parameters.

[3] = read-out: fLUC assay EC50, 24 hours with compound, 25 μM to 2.5 pM, figure in parentheses after a value not defined
[4] = female, Sprague Dawley, rat, po, 10 mg/kg
[5] = female Sprague Dawley rats, oral gavage 10 mg/kg, Capryol 90/Triacetin (1:1, v/v)
[6] = female, Sprague Dawley, rat, po, 10 mg/kg, AUC0−t, female Sprague Dawley rats, oral gavage 10 mg/kg, Capryol 90/Triacetin (1:1, v/v)
[7] = female, Sprague Dawley, rat, po, 10 mg/kg, Cmax, female Sprague Dawley rats, oral gavage 10 mg/kg, Capryol 90/Triacetin (1:1, v/v)
[8] = female, Sprague Dawley, rat, po, 10 mg/kg, Tmax, female Sprague Dawley rats, oral gavage 10 mg/kg, Capryol 90/Triacetin (1:1, v/v)
[9] = female, Sprague Dawley, rat, po, 10 mg/kg, half-life, female Sprague Dawley rats, oral gavage 10 mg/kg, Capryol 90/Triacetin (1:1, v/v)
[10] = female Sprague Dawley rats, oral gavage 10 mg/kg, Capryol 90/Triacetin (1:1, v/v), listed as Cpd. No. 59 (Lot # 1), 10 mg/kg
[11] = female Sprague Dawley rats, oral gavage 10 mg/kg, Capryol 90/Triacetin (1:1, v/v), listed as Cpd. No. 59 (Lot # 2), 10 mg/kg
[12] = read-out: fLUC assay EC50 Run 1, 24 hours with compound, Run 1
[13] = read-out: fLUC assay EC50 Run 2, 24 hours with compound, Run 2

Chain of RheoSwitch® (CHO-K1_RS-1 cells, firefly Luciferase reporter) (O77240 1-513): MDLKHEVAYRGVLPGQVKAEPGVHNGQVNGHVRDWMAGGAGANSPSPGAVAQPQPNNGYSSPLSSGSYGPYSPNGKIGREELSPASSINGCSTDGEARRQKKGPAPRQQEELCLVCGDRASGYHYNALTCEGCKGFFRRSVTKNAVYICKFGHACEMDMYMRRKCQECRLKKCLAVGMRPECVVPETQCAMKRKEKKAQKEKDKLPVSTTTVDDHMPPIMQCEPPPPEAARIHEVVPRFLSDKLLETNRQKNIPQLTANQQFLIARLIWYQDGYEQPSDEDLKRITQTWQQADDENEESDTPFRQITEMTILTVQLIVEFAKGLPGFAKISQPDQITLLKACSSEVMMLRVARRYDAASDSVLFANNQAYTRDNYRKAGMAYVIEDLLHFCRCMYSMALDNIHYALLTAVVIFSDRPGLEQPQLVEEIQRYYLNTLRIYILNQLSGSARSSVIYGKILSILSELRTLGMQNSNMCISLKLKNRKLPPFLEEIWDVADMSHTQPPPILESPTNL

Structure (SMILES): Cc1cc(C)cc(C(=O)N(NC(=O)c2ccc3c(c2C)OCCOB3O)C(C)(C)C)c1
- EC50 [1, 3]: 259 nM
- AUC(0-t) [2, 4]: 13200 ng·h/mL
- Cmax [2, 4]: 1280 ng/mL
- Tmax [2, 4]: 2.3 h
- half-life [2, 4]: 11 h
- Clearance [2, 5]: 10.2 mL/min/kg

Structure (SMILES): CCC[C@@H](N(NC(=O)c1cccc(OC)c1CC)C(=O)c1cc(C)cc(C)c1)C(C)(C)C [Cpd. B, reference compound]
- AUC(0-t) [2, 6]: 888 ng·h/mL
- Cmax [2, 7]: 116 ng/mL
- Tmax [2, 8]: 3.7 h
- half-life [2, 9]: 5.4 h
- Clearance [2, 5]: 183.83 mL/min/kg

Structure (SMILES): CC[C@@H](N(NC(=O)c1ccc2c(c1F)B(O)OC2)C(=O)c1cc(C)cc(C)c1)C(C)(C)C [Cpd. No. 59, (R)—N′-(3,5-dimethylbenzoyl)-N′-(2,2-dimethylpentan-3-yl)-7-fluoro-1-hydroxy-1,3-dihydrobenzo[c][1,2]oxaborole-6-carbohydrazide]
- EC50 [1, 3]: 108 nM
- AUC0−t [2, 10]: 127700 ng·h/mL
- Tmax [2, 10]: 5 h
- AUC0−t [2, 11]: 300721 ng·h/mL
- Cmax [2, 11]: 18833 ng/mL
- Tmax [2, 11]: 1.8 h
- half-life [2, 11]: 10.0 h
- Cmax [2, 7]: 11200 ng/mL
- half-life [2, 9]: 5.2 h
- Clearance [2, 10]: 1.4 mL/min/kg
- Clearance [2, 11]: 0.538 mL/min/kg

Structure (SMILES): CC[C@@H](N(NC(=O)c1ccc2c(c1F)COB2O)C(=O)c1cc(C)cc(C)c1)C(C)(C)C [Cpd. No. 67, (R)—N′-(3,5-dimethylbenzoyl)-N′-(2,2-dimethylpentan-3-yl)-4-fluoro-1-hydroxy-1,3-dihydrobenzo[c][1,2]oxaborole-5-carbohydrazide]
- EC50 [1, 3]: 309 nM
- AUC(0-t) [2, 6]: 24500 ng·h/mL
- Cmax [2, 7]: 3320 ng/mL
- Tmax [2, 8]: 3 h
- half-life [2, 9]: 5.5 h
- Clearance [2, 5]: 6.63 mL/min/kg

Structure (SMILES): CCC[C@@H](N(NC(=O)c1cccc(OC)c1C)C(=O)c1cc(C)cc(C)c1)C(C)(C)C [Cpd. A, reference compound]
- AUC(0-t) [2, 6]: 773 ng·h/mL
- Cmax [2, 7]: 255 ng/mL
- Tmax [2, 8]: 4 h
- half-life [2, 9]: 2.1 h
- Clearance [2, 5]: 213.1 mL/min/kg

Structure (SMILES): Cc1cc(C)cc(C(=O)N(NC(=O)c2ccc(B(O)O)c(F)c2)C(C)(C)C)c1 [Cpd. No. 23, (4-(2-(tert-butyl)-2-(3,5-dimethylbenzoyl) hydrazinecarbonyl)-2-fluorophenyl)boronic acid]
- EC50 [1, 3]: 1800 nM

Structure (SMILES): Cc1cc(C)cc(C(=O)N(NC(=O)c2c(F)cc(B(O)O)cc2F)C(C)(C)C)c1 [Cpd. No. 25, (4-(2-(tert-butyl)-2-(3,5-dimethylbenzoyl) hydrazinecarbonyl)-3,5-difluorophenyl)boronic acid]
- EC50 [1, 3]: 796 nM

Structure (SMILES): CC[C@@H](N(NC(=O)c1ccc(COC)c(B2OC(C)(C)C(C)(C)O2)c1F)C(=O)c1cc(C)cc(C)c1)C(C)(C)C [Cpd. No. 87, (R)-N′-(3,5-dimethylbenzoyl)-N′-(2,2 dimethylpentan-3-yl)-2-fluoro-4-(methoxymethyl)-3-(4,4,5,5-tetramethyl-1,3,2-dioxaborolan-2-yl)benzohydrazide]
- EC50 [1, 12]: 47.6 nM
- EC50 [1, 13]: 96.4 nM

Structure (SMILES): CCC(N(NC(=O)c1cccc(OC)c1C)C(=O)c1cc(OC)cc(B(O)O)c1)C(C)(C)C (racemic) [compound 37]
- EC50 [1, 3]: 2110 nM

Structure (SMILES): Cc1cc(C)cc(C(=O)N(NC(=O)c2cccc(B(O)O)c2Cl)C(C)(C)C)c1 [Cpd. No. 3]
- EC50 [1, 3]: 1660 nM

Structure (SMILES): CCCC(N(NC(=O)c1cccc(B2OC(C)(C)C(C)(C)O2)c1C)C(=O)c1cc(OC)ccc1OC)C(C)(C)C (racemic) [compound 48]
- EC50 [1, 3]: 22200 nM

Structure (SMILES): CC[C@@H](N(NC(=O)c1cccc(OC)c1C)C(=O)c1cc(C)cc(B(O)O)c1)C(C)(C)C [Cpd. No. 33, (R)-(3-(1-(2,2-dimethylpentan-3-yl)-2-(3-methoxy-2-methylbenzoyl)hydrazinecarbonyl)-5-methylphenyl)boronic acid]
- EC50 [1, 3]: 191 nM

Structure (SMILES): Cc1cc(C)cc(C(=O)N(NC(=O)c2ccc3c(c2C)OCCNB3O)C(C)(C)C)c1 [Cpd. No. 91, N′-(tert-butyl)-N′-(3,5-dimethylbenzoyl)-1-hydroxy-6-methyl-1,2,3,4-tetrahydrobenzo[f][1,4,5]oxazaborepine-7-carbohydrazide]
- EC50 [1, 12]: 132 nM
- EC50 [1, 13]: 86.9 nM

Structure (SMILES): CCC[C@@H](N(NC(=O)c1ccc(B(O)O)cc1)C(=O)c1cc(C)cc(C)c1)C(C)(C)C [Cpd. No. 8]
- EC50 [1, 3]: 103 nM

Structure (SMILES): CC[C@@H](N(NC(=O)c1ccc(B(O)O)c(OCCOC)c1C)C(=O)c1cc(C)cc(C)c1)C(C)(C)C [Cpd. No. 26, (R)-(4-(2-(3,5-dimethylbenzoyl)-2-(2,2-dimethylpentan-3-yl)hydrazinecarbonyl)-2-(2-methoxyethoxy)-3-methylphenyl)boronic acid]
- EC50 [1, 3]: 1670 nM

Structure (SMILES): CCCC(N(NC(=O)c1cccc(B2OC(C)(C)C(C)(C)O2)c1C)C(=O)c1cccc(B2OC(C)(C)C(C)(C)O2)c1C)C(C)(C)C (racemic) [compound 41]
- EC50 [1, 3]: ~14000 nM

Structure (SMILES): CCC(c1ccccc1)N(NC(=O)c1ccc(B(O)O)cc1F)C(=O)c1cc(C)cc(C)c1 (racemic) [compound 18]
- EC50 [1, 3]: 203 nM

Structure (SMILES): CCC[C@@H](N(NC(=O)c1c(F)cc(B(O)O)cc1F)C(=O)c1cc(C)cc(C)c1)C(C)(C)C [Cpd. No. 24, (R)-(4-(2-(3,5-dimethylbenzoyl)-2-(2,2-dimethylhexan-3-yl)hydrazinecarbonyl)-3,5-difluorophenyl)boronic acid]
- EC50 [1, 3]: 85.7 nM

Structure (SMILES): CCC[C@@H](N(NC(=O)c1ccc(B(O)O)cc1C(C)C)C(=O)c1cc(C)cc(C)c1)C(C)(C)C [compound 10]
- EC50 [1, 3]: 1240 nM

Structure (SMILES): CCc1c(OC)cccc1C(=O)NN(C(=O)c1ccc(B(O)O)cc1)C(C)(C)C [compound 40]
- EC50 [1, 3]: 5250 nM

Structure (SMILES): CCC(N(NC(=O)c1cccc(OC)c1C)C(=O)c1cc(B(O)O)cc([N+](=O)[O-])c1)C(C)(C)C (racemic) [compound 36]
- EC50 [1, 3]: > 25000 nM

Structure (SMILES): CCC(N(NC(=O)c1cccc(B2OC(C)(C)C(C)(C)O2)c1C)C(=O)c1cc(OC)c(C)c(OC)c1)C(C)(C)C (racemic) [compound 47]
- EC50 [1, 3]: 1640 nM

Structure (SMILES): COCc1ccc(C(=O)NN(C(=O)c2cc(C)cc(C)c2)C(C)(C)C)c(F)c1B1OC(C)(C)C(C)(C)O1 [Cpd. No. 94, N′-(tert-butyl)-N′-(3,5-dimethylbenzoyl)-2-fluoro-4-(methoxymethyl)-3-(4,4,5,5-tetramethyl-1,3,2-dioxaborolan-2-yl)benzohydrazide]
- EC50 [1, 12]: 778 nM
- EC50 [1, 13]: 1650 nM

Structure (SMILES): CCC(N(NC(=O)c1cccc(OC)c1C)C(=O)c1cc(F)cc(B(O)O)c1)C(C)(C)C (racemic) [compound 35]
- EC50 [1, 3]: 2600 nM

Structure (SMILES): CC[C@@H](N(NC(=O)c1cccc(OC)c1C)C(=O)c1cc(C)cc(B2OC(C)(C)C(C)(C)O2)c1)C(C)(C)C [compound 39]
- EC50 [1, 3]: 168 nM

Structure (SMILES): Cc1cc(C)cc(C(=O)N(NC(=O)c2ccc(B(O)O)cc2F)C(C)(C)C)c1 [compound 12]
- EC50 [1, 3]: 271 nM

Structure (SMILES): CCC(c1ccccc1)N(NC(=O)c1ccc(B(O)O)cc1F)C(=O)c1cc(C)cc(C)c1 (racemic) [compound 19]
- EC50 [1, 3]: 258 nM
